Measured values: patent US12077586B2, “Bispecific antibodies for use in the treatment of hematological malignancies” (LAVA THERAPEUTICS N.V., priority 2018, dated 2024)

Experiments:
[1] = test system: CD1d-transfected MM.1s cells; assay: VHH binding to CD1d-transfected MM.1s cells (flow cytometry); set-up: species or system human; details: read-out: apparent Kd
Vγ9Vδ2-T cells [2] = assay: Cytokine and degranulation assay, Vγ9Vδ2-T cells cocultured with Jeko-1 cells; type: cell-based, human; details: bispecific antibody alone, without target cells
Jeko-1 cells [3] = assay: Cytotoxicity assay with Vγ9Vδ2-T cell lines, Jeko-1 target cells; type: cell-based, human
Protocol: (§1) Target cells were then cocultured overnight with Vγ9Vδ2-T cell lines in a 1:1 ratio unless otherwise indicated. Viability was measured using Mitotracker Orange (25-minute incubation at 37° C., M7510) and To-pro-3 (10-minute incubation at room temperature; T3605, both Thermo Fisher Scientific).
(§2) If indicated, target cells were pretreated with 25 μM mevastatin (M2537, Sigma-Aldrich), 50 μM aminobisphosphonates (pamidronate, #12J08RD, TEVA Pharmachemie, Haarlem, the Netherlands) or medium control for 2 hours.
(§3) If indicated, cells were cultured with the indicated concentrations of all-trans retinoic acid (ATRA; R2625, Sigma-Aldrich) for 48 hours unless otherwise indicated. ATRA was washed away prior to cytotoxicity assays.
If indicated, target cells were pre-incubated with 5 μg/mL anti-CD1d mAb (clone 51.1, 350304, Biolegend, San Diego, CA, USA) and/or 10 μg/mL anti-CD277 mAb (clone 103.2, Creative Biolabs, Shirley, NY, USA) for 10 minutes.

[4] = test system: CD1d-transfected MM.1s cells; assay: Cytotoxicity assay with Vγ9Vδ2-T cell lines, CD1d-transfected MM.1s; type: cell-based, human; details: overnight coculture with Vγ9Vδ2-T cells
Protocol: (§4) (A) Specific lysis of Jeko-1 cell line (n=3). (B) CD1d expression on WT or CD1d-transfected MM.1s cell line (blank histogram: CD1d-stained, grey filled histogram: fluorescence minus one control). (C) Specific lysis of WT or CD1d-transfected MM.1s cell line (n=4). (D) Specific lysis of primary CLL cells with negative, low or high CD1d expression (n=4 per group). Specific lysis is calculated by correcting for background cell death in condition without Vγ9Vδ2-T cells. Data represent mean and SD. *P<0.05, **P<0.01, ****P<0.0001. (A: one-way ANOVA followed by Dunnett's post hoc test compared to untreated condition, C: two-way ANOVA followed by Sidak's post hoc test comparing WT vs CD1d for each concentration, D: two-way ANOVA followed by Tukey's post hoc test comparing each CD1d group for each concentration).
as §1

[5] = test system: wildtype CD1d-negative MM.1s cells; assay: Cytotoxicity assay with Vγ9Vδ2-T cell lines, wildtype MM.1s; type: cell-based, human; details: overnight coculture with Vγ9Vδ2-T cells
Protocol: as §4, §1

primary CLL cells = assay: Cytotoxicity assay with Vγ9Vδ2-T cell lines, primary CLL cells; type: cell-based
Protocol: as §4, §1, §3

[6] = test system: CLL patient-derived Vγ9Vδ2-T cells; assay: Activation, cytokine and degranulation assay with autologous CLL patient-derived Vγ9Vδ2-T cells; type: cell-based, human
Excerpt: (§5) (A-C) Activation of and cytokine production and degranulation by patient-derived Vγ9Vδ2-T cells. […] (D) Lysis of primary CLL cells by autologous Vγ9Vδ2-T cells. […] Live CLL cells were quantified by flow cytometry using counting beads (n=5). (E) Expansion of patient-derived Vγ9Vδ2-T cells. […] Percentage Vγ9Vδ2-T cells after 1 week (n=8). Data are presented as mean and SD. *P<0.05, **P<0.01, ***P<0.001. (A-D: one-way ANOVA followed by Dunnett's post hoc test compared to medium control; E: paired t-test).

autologous CLL cells = assay: Cytotoxicity assay with patient-derived Vγ9Vδ2-T cells against autologous CLL cells; type: cell-based, human; details: 10 nM; CD3:PBMC 5:1 or 20:1
Excerpt: as §5
For cytotoxicity assays performed with patient-derived Vγ9Vδ2-T cells, CD3^+ cells were enriched from patient PBMC by magnetic bead selection (130-050-101, Miltenyi Biotec; ≥90% purity). […] Viable cells were then quantified by fluorescence-labeled antibodies and viability dyes in combination with counting beads (01-1234-42, Thermo Fisher Scientific).

[7] = test system: CLL patient-derived Vγ9Vδ2-T cells; assay: Proliferation assay of CLL patient-derived Vγ9Vδ2-T cells; type: cell-based, human; details: 1 week
Excerpt: as §5
For proliferation assays, PBMCs from CL patients were enriched for T cells by depletion of CD19^+ CLL cells. After attachment of irradiated (30Gy) […] fibroblasts to culture plates, T cell enriched PBMC (≤10% CD19^+) and purified CD19^+ (≥90% CD19^+) PBMC fractions were added in a 2:1 (CD19:CD19^+) ratio.

healthy B cells = assay: Mixed coculture cytotoxicity (Vγ9Vδ2-T cell: B cell: CLL cell 1:1:1), healthy B cells; type: cell-based, human; details: 6 hours
Protocol: (§6) (A) Specific lysis of Jeko-1 cells after pretreatment with mevastatin or pamidronate. […] (B) CD1d expression on B cells from healthy donor PBMCs. (C) Specific lysis of healthy B cells and CLL cells after pretreatment with ABP. Healthy B cells (isolated from healthy donor PBMCs, CFSE-labeled) and CLL cells (isolated from CLL PBMCs, CTV-labeled) were mixed in 1:1 ratio and pretreated with 50 μM pamidronate or medium control for 2 hours. […] (D) Specific lysis of Jeko-1 cells after blockade of CD1d or CD277. Jeko-1 cells were incubated with an anti-CD1d antibody (5 μg/mL), anti-CD277 antibody (10 μg/mL), anti-CD1d and anti-CD277 antibodies, or medium control for 10 minutes. […] Specific lysis is calculated by correcting for background cell death in condition without Vγ9Vδ2-T cells. Data represent mean and SD. *P<0.05, **P<0.01, ***P<0.001. (A: two-way ANOVA followed by Dunnett's post hoc test comparing control vs each pretreatment; C: two-way ANOVA followed by Sidak's post hoc test comparing untreated vs ABP pre-treated D: one-way ANOVA followed by Dunnett's post hoc test compared to medium control).
as §2
(§7) Healthy B cells express low levels of CD1d (FIG. 12B). […]

CLL cells = assay: Mixed coculture cytotoxicity (Vγ9Vδ2-T cell: B cell: CLL cell 1:1:1), CLL cells; type: cell-based, human; details: 6 hours
Protocol: as §6, §2, §7

[8] = test system: CD1d expression on Jeko-1 cells; assay: CD1d expression on Jeko-1 cells after ATRA treatment; type: cell-based, human; details: 48 hours
Protocol: (§8) (A) CD1d expression on Jeko-1 cells after 48 hours of ATRA treatment. (B) Time-curve of CD1d expression upon ATRA treatment (n=3). (C) Viability of Jeko-1 cells after 48 hours of treatment with 100 nM ATRA (n=4). (D) Lysis of Jeko-1 cells after pretreatment with ATRA. […] (E) CD1d expression on primary CLL cells after 48 hours of different concentrations of ATRA or medium control treatment (n=17). (F) Lysis of CLL cells after pretreatment with ATRA. […] Specific lysis is calculated by correcting for background cell death in condition without Vγ9Vδ2-T cells. Data represent mean and SD. *P<0.05, ***P<0.001, ****P<0.0001. (C: paired t-test; D, F: two-way ANOVA followed by Sidak's post hoc test comparing control vs ATRA-treated for each concentration; E: Friedman test followed by Dunnett's post hoc test compared to medium control).
(§9) Cells were stained with antibodies and viability dyes (Table 4) and measured on an LSR Fortessa or FACS Canto cytometer (BD Biosciences, Franklin Lakes, NJ, USA). Samples were analyzed with Flowjo MacV10. Cytofix/Cytoperm reagent was used for detection of intracellular cytokines (BD Biosciences). Relative CD1d expression is defined as geometric MFI (CD1d stained)—geometric MFI (fluorescence minus one).
If indicated, cells were cultured with the indicated concentrations of all-trans retinoic acid (ATRA; R2625, Sigma-Aldrich) for 48 hours unless otherwise indicated. […]

Jeko-1 cells [9] = assay: Viability of Jeko-1 cells after ATRA treatment; type: cell-based, human; details: 100 nM ATRA, 48 hours
Protocol: as §8, §3

[10] = test system: CD1d expression on primary CLL cells; assay: CD1d expression on primary CLL cells after ATRA treatment; type: cell-based, human; details: for Increase of CD1d levels: primary CLL cells, 48 hours
Protocol: as §8, §9, §3

Vδ2 chain = biological target: T1, Vδ2 chain (Homo sapiens, UniProt A0JD36); details: Mean Fluorescence Index class; γδ T-cells expressing Vδ2 chain paired with non Vγ9 chain; cited from earlier work
T1 construct: host or cells: γδ T-cells expressing a Vδ2 chain paired with a non-Vγ9 chain
T1 sequence (A0JD36 with tags, fused parts or gaps): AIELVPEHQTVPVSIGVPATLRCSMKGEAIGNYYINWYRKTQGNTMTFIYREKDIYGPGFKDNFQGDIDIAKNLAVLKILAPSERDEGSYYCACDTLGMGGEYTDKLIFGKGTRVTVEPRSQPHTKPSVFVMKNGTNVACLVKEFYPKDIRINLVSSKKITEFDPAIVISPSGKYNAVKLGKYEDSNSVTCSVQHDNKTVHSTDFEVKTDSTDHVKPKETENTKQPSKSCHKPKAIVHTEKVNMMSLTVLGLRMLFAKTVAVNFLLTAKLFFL
T1 sequence (P07766 23-207 partner): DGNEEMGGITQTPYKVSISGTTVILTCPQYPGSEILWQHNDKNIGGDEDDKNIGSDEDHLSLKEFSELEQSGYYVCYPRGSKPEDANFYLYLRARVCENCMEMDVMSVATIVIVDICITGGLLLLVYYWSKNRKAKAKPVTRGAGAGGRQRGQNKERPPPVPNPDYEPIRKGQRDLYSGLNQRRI
T1 sequence (P09693 23-182 partner): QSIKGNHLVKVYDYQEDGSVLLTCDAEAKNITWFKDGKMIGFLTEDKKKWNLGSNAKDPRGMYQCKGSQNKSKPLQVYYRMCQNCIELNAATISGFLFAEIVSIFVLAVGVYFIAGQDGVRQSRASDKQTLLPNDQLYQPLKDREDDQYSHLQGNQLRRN
T1 sequence (P04234 22-171 partner): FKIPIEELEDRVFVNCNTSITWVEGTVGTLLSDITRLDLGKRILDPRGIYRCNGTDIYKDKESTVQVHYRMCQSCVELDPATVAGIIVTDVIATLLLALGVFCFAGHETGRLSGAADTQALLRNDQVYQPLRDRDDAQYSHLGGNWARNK
T1 sequence (P20963 22-164 partner): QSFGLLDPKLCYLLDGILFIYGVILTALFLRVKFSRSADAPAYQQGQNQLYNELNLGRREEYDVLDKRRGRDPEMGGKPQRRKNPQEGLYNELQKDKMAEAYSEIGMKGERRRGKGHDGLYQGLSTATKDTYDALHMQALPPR

Vγ9 chain = biological target: T2, Vγ9 chain (Homo sapiens, UniProt Q99603, T7A); details: Mean Fluorescence Index class; γδ T-cells expressing Vγ9 chain paired with non Vδ2 chain; cited from earlier work
T2 construct: host or cells: γδ T-cells expressing a Vγ9 chain paired with a non-Vδ2 chain
T2 sequence (Q99603 with tags, fused parts or gaps T7A limits assumed): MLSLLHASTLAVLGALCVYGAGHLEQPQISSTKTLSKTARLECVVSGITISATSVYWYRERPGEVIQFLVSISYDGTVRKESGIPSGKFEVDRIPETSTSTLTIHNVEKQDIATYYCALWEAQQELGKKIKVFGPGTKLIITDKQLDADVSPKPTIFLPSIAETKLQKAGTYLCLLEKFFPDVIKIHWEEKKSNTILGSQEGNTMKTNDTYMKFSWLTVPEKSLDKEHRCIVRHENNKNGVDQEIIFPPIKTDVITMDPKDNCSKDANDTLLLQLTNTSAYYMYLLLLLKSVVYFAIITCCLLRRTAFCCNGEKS
T2 sequence (P07766 23-207 partner): as the sequence (P07766 23-207 partner) above
T2 sequence (P09693 23-182 partner): as the sequence (P09693 23-182 partner) above
T2 sequence (P04234 22-171 partner): as the sequence (P04234 22-171 partner) above
T2 sequence (P20963 22-164 partner): as the sequence (P20963 22-164 partner) above

complete Vγ9Vδ2 TCR = biological target: T3, complete Vγ9Vδ2 TCR (Homo sapiens, UniProt A0JD36+Q99603, T7A); details: Mean Fluorescence Index class; cited from earlier work
T3 construct: host or cells: γδ T-cells expressing the complete Vγ9Vδ2 TCR
T3 sequence (Q99603 with tags, fused parts or gaps T7A limits assumed): as the sequence (Q99603 with tags, fused parts or gaps T7A limits assumed) above
T3 sequence (A0JD36 with tags, fused parts or gaps, stated change not applied): as the sequence (A0JD36 with tags, fused parts or gaps) above
T3 sequence (P07766 23-207 partner): as the sequence (P07766 23-207 partner) above
T3 sequence (P09693 23-182 partner): as the sequence (P09693 23-182 partner) above
T3 sequence (P04234 22-171 partner): as the sequence (P04234 22-171 partner) above
T3 sequence (P20963 22-164 partner): as the sequence (P20963 22-164 partner) above

[11] = test system: γδ T-cells not expressing any of the Vγ9Vδ2 TCR chains; details: Mean Fluorescence Index class; cells not expressing any Vγ9Vδ2 TCR chain; cited from earlier work
Vγ9Vδ2-T cells [12] = details: previous work; cited from earlier work
[13] = 100 nM, overnight coculture with Vγ9Vδ2-T cells 1:1
[14] = 10 pM 1D7-5C8, with ABP (50 μM pamidronate pretreatment)

Molecule: 1D7-5C8: CD1d-Vδ2 bispecific VHH: 1D7 (N-terminal) joined to 5C8 (C-terminal) with Gly4Ser-linker, SEQ ID NO: 165
- Kd [1]: 0.4 nM
- IFN-γ production and degranulation of Vγ9Vδ2-T cells (Vγ9Vδ2-T cells [2]): did not produce IFN-γ and hardly degranulated
- Lysis of Jeko-1 cells (Jeko-1 cells [3]; 10 pM 1D7-5C8 with CD1d-blocking antibody (5 μg/mL)): 13.7%±1.0
- Lysis of Jeko-1 cells (Jeko-1 cells [3]; 10 pM 1D7-5C8 with CD1d and CD277 simultaneously blocked): 9.4%±0.8
- Lysis of Jeko-1 cells (Jeko-1 cells [3]; 10 nM, overnight coculture with Vγ9Vδ2-T cells 1:1): 75.2%±21.0
- Decline of 1D7-5C8-induced lysis (Jeko-1 cells [3]; CD1d and CD277 simultaneously blocked): 20.2%
- Target cell lysis (Jeko-1 cells [3]; in the absence of Vγ9Vδ2-T cells): did not induce target cell lysis
- Decrease of 1D7-5C8-induced lysis (Jeko-1 cells [3]; with CD1d-blocking antibody, on average): 15.9%
- Lysis of CD1d+ MM.1s cells [4]: clearly increased lysis
- Lysis of wildtype MM.1s cells [5]: had no effect on lysis of the wildtype cells
- Lysis of CD1d high CLL cells (primary CLL cells; [13]): 74.5%±19.1
- Lysis of CD1d low CLL cells (primary CLL cells; [13]): 49.3%±6.6
- Upregulation of activation marker CD25 on patient Vγ9Vδ2-T cells ([6]; overnight culture of CLL PBMC, 1D7-5C8 50 nM): 20.8 fold
- Cytokine production by patient-derived Vγ9Vδ2-T cells ([6]; overnight, 50 nM): induced production of IFN-γ and TNF-α
- Degranulation of patient-derived Vγ9Vδ2-T cells ([6]; overnight, 50 nM): triggered Vγ9Vδ2-T cell degranulation
- Lysis of autologous CLL cells by patient-derived Vγ9Vδ2-T cells (autologous CLL cells): enables autologous tumor lysis at relatively low E:T ratios
- Percentage of Vγ9Vδ2-T cells within the T cell fraction ([7]; IL-2 50 IU/mL and 50 nM 1D7-5C8, baseline 1.2%): 5.6%±4.7
- Percentage of Vγ9Vδ2-T cells with versus without antibody ([7]; IL-2 50 IU/mL, 50 nM 1D7-5C8): 3.1 fold
- Lysis of healthy B cells (healthy B cells; 10 pM 1D7-5C8, no ABP): 4.8%±0.6
- Lysis of healthy B cells (healthy B cells; [14]): 5.4%±4.5
- Lysis of CLL cells (CLL cells; 10 pM 1D7-5C8, no ABP): 19.6%±4.8
- Lysis of CLL cells (CLL cells; [14]): 25.1%±5.2

Molecule: CC1=C(/C=C/C(C)=C/C=C/C(C)=C/C(=O)O)C(C)(C)CCC1 [ATRA, all-trans retinoic acid]
- Sensitivity of ATRA-pretreated Jeko-1 cells to 1D7-5C8-induced cell death (Jeko-1 cells [3]; 100 nM ATRA 48 hours, then Vγ9Vδ2-T cells 1:2 plus 1D7-5C8): more sensitive to bispecific antibody 1D7-5C8-induced cell death than control Jeko-1 cells
- Sensitivity of ATRA-pretreated primary CLL cells to 1D7-5C8-mediated cell death (primary CLL cells; 100 nM ATRA 48 hours, then Vγ9Vδ2-T cells 1:1 plus 1D7-5C8): did sensitize primary CLL cells to bispecific antibody 1D7-5C8-mediated cell death
- ATRA concentration at which upregulation of CD1d expression was detectable [8]: 10 pM
- Direct induction of cell death (Jeko-1 cells [9]): did not induce cell death directly
- CD1d relative MFI ([10]; primary CLL cells after 100 nM ATRA): 504.6±366.0
- Increase of CD1d levels ([10]; 1 nM ATRA): 2.6 fold
- Increase of CD1d levels ([10]; 100 nM ATRA, on average): 3.7 fold

B1: 5C8: Vγ9Vδ2-specific VHH binding to the Vδ2 chain of the TCR, SEQ ID NO: 149 (protein)
VHH: EVQLVESGGGLVQAGGSLRLSCAASGRPFSNYAMGWFRQAPGKEREFVAAISWSGGSTSYADSVKGRFTISRDNAKNTVYLQMNSPKPEDTAIYYCAAQFSGADYGFGRLGIRGYEYDYWGQGTQVTVSS
modifications: antibody sequence
- Binding, Vδ2+ (Vδ2 chain): ++ (“++” indicates an MFI above 20)
- Binding, Vγ9+ (Vγ9 chain): − (“−” indicates a Mean Fluorescence Index (MFI) below 1.5)
- Binding, Vγ9Vδ2+ (complete Vγ9Vδ2 TCR): ++ (“++” indicates an MFI above 20)
- Binding, Vγ9Vδ2− [11]: − (“−” indicates a Mean Fluorescence Index (MFI) below 1.5)
- Inhibition of phosphoantigen-CD277 mediated Vγ9Vδ2-T cell activation (Vγ9Vδ2-T cells [12]): not effective in inhibiting phosphoantigen-CD277 mediated Vγ9Vδ2-T cell activation
